Reference: article PMC12973313 (Chemical Science, 2026)
Values joined by “and” are separate entries in the source; they are usually repeats but may differ in a detail not shown here. Identical values can stand only once. Like-named read-outs stand apart in the source and are kept apart here.

How the values were obtained:
[1] = Surface tension (pendant drop) / CAC determination, H2O 5% EtOH; type: physicochemical; conditions: for Surface tension (mN m^-1): H2O 5% EtOH, at limit of SSA solubility = 5.56 mM; for CAC: H2O/5 % EtOH, above the limit of solubility
From the text: Here, the CAC is defined as the concentration at which any additional SSA added to a solution will result in the production of high-order self-associated species. […] To determine CAC, we used the pendant drop method to elucidate the surface tension of H2O 5% EtOH solutions of 1, 3, 5, 7, 9, and 1 : 1 SSA enantiomeric mixtures at 291 K (Table 2).

[2] = test system: A2780 CisR cisplatin resistant ovarian cancer cells; experiment: GI50 determination, SRB assay; type: cell-based, human; conditions: read-out: Mean GI50 (μM) A2780 CisR SRB Assays
Procedure: (§1) GI50 determination assays
(§2) Cell culture: The RPE-1 retinal pigment epithelial, A2780 human ovarian carcinoma, and A2780 CisR cisplatin resistant human ovarian carcinoma cell lines were donated with thanks from the Institute of Cancer Research. The A2780 and A2780 CisR cell lines were cultured in IMDM supplemented with 10 % FBS at 37 °C and 5 % CO2, while the RPE-1 cell line was cultured in a 1:1 mixture of Dulbecco's Modified Eagle Medium and Ham’s F-12 Nutrient Mixture (DMEM/F-12) at 37 °C and 5 % CO2.
(§3) SRB assay: Cells were seeded into 96-well plates at 800 cells per well/cpw (A2780), 1600 cpw (A2780 CisR) or 400 cpw (RPE-1) in cell culture medium and cultured for 48 hours followed by addition of each compound over an eight-point concentration range (each concentration in triplicate). Plates were then cultured for a further 96 hours, after which the cell culture […]
(§4) medium was removed from each well and the cells fixed with addition of 70 µL/well of 10 % (w/v) trichloroacetic acid (TCA) in distilled water followed by incubation for 30 minutes at RT.
(§5) Each plate was then washed with distilled water five times before addition of 70 µL SRB dye (0.4 % (w/v) SRB dye (ThermoFisher Scientific, USA) solubilised in 1 % (v/v) acetic acid/ dH2O) and incubat ed for 30 minutes at RT, followed by washing three times with 1 % (v/v) acetic acid and drying in a 37 °C oven overnight. Once dry, 100 μl of 10 mM Tris -base (ThermoFisher Scientific, USA) was added to each well and plates put on a microplate shaker for 10 minutes at 200 rpm to solubilize the dye. Absorbance values were then read at wavelength 490 nm on a Victor X4 multi-label plate reader (PerkinElmer Life Sciences, USA), data analysed using Microsoft Excel and graphs produced using GraphPad Prism 9.0 and the GI50 value calculated.
(§6) Solutions and compo und preparation: All solvents and starting materials were purchased from known chemical suppliers. Compound stock solutions were prepared in DMSO. Buffer […]
(§7) 500 mM. Buffer B consisted of Na2SO4 (167 mM) and NaOAc (5 mM) with a pH of 5.5 and an ionic strength of 500 mM.
(§8) Vesicle formation: Giant unilamellar Vesicles (GUVS) were prepared through the electro formation method using a Nanion VesiclePrepPro. A solution of 1,2-diphytanoyl-sn-glycero-3-phosphocholine (DPhPC) (10 mM) with 10 % cholesterol in chloroform (20 µL) was deposited onto an ITO coated glass surface (surface coated glass slide) and allowed to evaporate to create a dehydrated thin lipid film. A greased O-ring was then placed around the dehydrated lipid film to create a seal. This volume was then filled with a sucrose solution (275 µL, 200 mM) and then sealed with a second ITO coated glass slide. An AC current (3 V/5 Hz) was then applied. After 2 hrs, the voltage and frequency were reduced in steps over 30 mins to 1.6 V/1 Hz and held for 1 hr before being reduced to 0 V/0 Hz over a further 30 min […]
(§9) Patch clamp measurements: Experiments were performed using a Port-a-Patch system (Nanion Technologies) with borosilicate glass chips that contain an aperture diameter of approximately 1 µm. Buffer A (5 µL) was placed on the underside of the chip over the aperture, The chip was then placed into the port-a-patch system. Buffer A (15 µL) was then added to the top of the chip and 5 µL of the GUV stock solution added. The GUVS were the positioned over the aperture in the chip by application of negative pressure (-30 mbar).
(§10) When a GUV is positioned over the aperture in the chip, it bursts, leaving a planar bilayer as a seal. The negative pressure is then removed, leaving the planar bilayer in place over the aperture. The external buffer A was the exchanged with buffer B, through four simultaneous […]
(§11) buffer exchanges (4 x 15 µL). […]
(§12) = 30 s, to give a final experimental concentration of 0.1 – 1 mM as appropriate. The number of sweeps was set to 1000, the sweep interval to 0.00 s, sample interval to 1.00 ms and the protocol was run for a total of 5 mins. Each experiment was repeated a minimum of three time to ensure reproducibility.

[3] = test system: A2780 ovarian cancer cells; experiment: GI50 determination, SRB assay; type: cell-based, human; conditions: for GI50: 96 hours, read-out: Mean GI50 (μM) A2780 SRB Assays
Procedure: as §1, §2, §3, §4, §5, §6, §7, §8, §9, §10, §11, §12

RPE-1 cells = experiment: GI50 determination, SRB assay; type: cell-based, human; conditions: read-out: Mean GI50 (μM) RPE-1 SRB Assays
Procedure: as §1, §2, §3, §4, §5, §6, §7, §8, §9, §10, §11, §12

[4] = Dynamic light scattering, H2O 5% EtOH; type: physicochemical; conditions: 5.56 mM, 298 K, after annealing
From the text: The size and stability of those self-associated structures present were confirmed through a combination of dynamic light scattering (DLS) and zeta potential measurements respectively (Table 2). […] Therefore, the presence of the alkyl/aromatic R-groups within the amino acid appended SSA are confirmed to increase higher order self-associated aggregate stability.
Table S9 - The peak maxima and polydispersity indices obtained for 1, 3, 5, 7, 9, and 1:1 enantiomeric mixtures of 3 + 5 and 7 + 9 obtained at 5.56 mM in H2O/5 % EtOH. An annealing process was applied in which the samples were heated to approximately 313 K before being cooled down to a measurement temperature of 298 K. The errors given are the standard error of the average.
Compound Repeat Peak maxima (nm) Polydispersity index

[5] = 1H NMR DOSY, DMSO-d6 0.5% H2O; type: physicochemical; conditions: 298 K; for dH (nm), hydrodynamic diameter, anionic component: 1H NMR DOSY, DMSO-d6 0.5% H2O, 112 mM; for Hydrodynamic diameter (nm) Cationic component: DMSO-d6/0.5 % H2O

| SMILES | Surface tension (mN m^-1) [1] | CAC [1] [mM] | GI50 ([2]; Homo sapiens, A2780cisR, 96 h) [µM] | GI50 ([3]; Homo sapiens, A2780, 96 h) [µM] | GI50 (RPE-1 cells; Homo sapiens, RPE-1, 96 h) [µM] | dH (nm), DLS intensity distribution peak maxima [4] | dH (nm), hydrodynamic diameter, anionic component [5] | Hydrodynamic diameter (nm) Cationic component [5] [nm] | selectivity for the cancer cells over the RPE-1 cells ([3]; no impact on RPE-1 cell growth at 350 µM) | Surface tension (mN m^-1) ([1]; listed as 5) | GI50 ([2]; 96 hours) [µM] | GI50 [3] [µM] | GI50 (RPE-1 cells; 96 hours) [µM] | dH (nm), DLS intensity distribution peak maxima ([4]; listed as 5) | dH (nm), hydrodynamic diameter, anionic component ([5]; listed as 5) | Hydrodynamic diameter (nm) Cationic component ([5]; listed as 5) [nm] | Surface tension (mN m^-1) ([1]; listed as 3) | dH (nm), DLS intensity distribution peak maxima ([4]; listed as 3) | dH (nm), hydrodynamic diameter, anionic component ([5]; listed as 3) | Hydrodynamic diameter (nm) Cationic component ([5]; listed as 3) [nm] |
| --- | --- | --- | --- | --- | --- | --- | --- | --- | --- | --- | --- | --- | --- | --- | --- | --- | --- | --- | --- | --- |
| O=C(Nc1ccc(C(F)(F)F)cc1)N[C@@H](Cc1ccccc1)C(=O)O [SSA 7] | 39.83 mN m^−1 and 39.83 ^c mN m^−1 | > 5.56 | 356 | 178 | > 375 | 166.62 (± 19.14) nm and 167 nm | 1.70 nm and 1.7 nm | 1.27 |  |  |  |  |  |  |  |  |  |  |  |  |
| O=C(O)CNC(=O)Nc1ccc(C(F)(F)F)cc1 [SSA 1] |  |  | 367 | 117 | 296 |  |  |  |  |  |  |  |  |  |  |  |  |  |  |  |
| O=C(Nc1ccc(C(F)(F)F)cc1)N[C@H](Cc1ccccc1)C(=O)O [SSA 9] | 39.64 mN m^−1 and 39.64 ^c mN m^−1 | > 5.56 | 197 | 105 | > 375 | 180.99 (± 53.12) nm and 181 nm | 1.67 nm and 1.7 nm | 1.24 | ≥ two-fold |  |  |  |  |  |  |  |  |  |  |  |
| CC(C)CC(NC(=O)Nc1ccc(C(F)(F)F)cc1)C(=O)O (centres unmarked) [SSA 5] |  |  |  |  |  |  |  |  |  | 40.92 mN m^−1 and 40.92 ^c mN m^−1 | 498 | 231 | > 375 | 174.05 (± 13.00) nm and 174 nm | 1.70 nm and 1.7 nm | 1.28 |  |  |  |  |
| CC(C)CC(NC(=O)Nc1ccc(C(F)(F)F)cc1)C(=O)O (centres unmarked) [SSA 3] |  | > 5.56 | 276 | 171 | > 500 |  |  |  |  |  |  |  |  |  |  |  | 40.92 mN m^−1 and 40.92 ^c mN m^−1 | 265.65 (± 19.29) nm and 266 nm | 1.66 nm and 1.7 nm | 1.26 |
